Experiments:
[1] = test system: patients having either mild or very mild cognitive deterioration; experiment: Double-blind 16-week clinical trial (CDR, Barthel's, Folstein's tests, Global Clinical Impression); assay type: in vivo, human; conditions: for Global Clinic Impression: after 16-week treatment, code 1 highly worsened, 4 unchanged, 5 slightly improved, 6 improved, 7 highly improved; for BARTHEL's test, final mark / CDR test, final mark / FOLSTEIN's test, final mark: group average after 16-week treatment, twice a day; for FOLSTEIN's test, final mark: higher mark = favorable; for BARTHEL's test, initial mark / FOLSTEIN's test, initial mark / CDR test, initial mark: group average at baseline, before 16-week treatment; for CDR test, initial mark: twice a day oral
From the text: Seventy nine patients having either mild or very mild cognitive deterioration with the following inclusion criterion:
Antecedents of ischaemic cerebrovascular pathology with symptoms or only with expression in brain computerized tomography (silent infarct). In case of focal or acute multimodal symptoms, at least a three-month period should elapse since symptoms evidence before being included in the tests.
Severity of cognitive deterioration was of the very mild or mild type CDR scale 0,5 and 1 (Clinical Dementia Rating).
Patients were selected from the Neurology area of four different hospitals. In each center a randomization list for parallel groups was established. Tablets in the three groups had the same aspect so as to preserve the double-blind characteristic of the study.
For diagnosis of cognitive deterioration and its association to ischaemic cerebrovascular disorders the criteria proposed in 1992 by the California University, USA, were used, in both their probable and possible forms.
The degree of severity of the cognitive disorder is limited to a borderline, mild condition, according to CDR scale in its points 0.5 and 1. A Hamilton test is carried out in order to detect a depressive condition, which shall contribute to the differential diagnosis of a pseudo dementia.
The Barthel index was used for evaluation of everyday life.
During the initial period a washing in medicine intake was made, in the weeks −4 to 0, the latter being the baseline for those drugs considered to be vasoactive or nootropic.
The observation period lasted 16 weeks, so patients were randomized in three groups which received as double-blind treatment:
Idebenone 45 mg, twice a day.
Nimodipine 30 mg, twice a day.
Idebenone 45 mg+Nimodipine 30 mg, twice a day.
Therapeutic efficacy criteria were based on the results of Folstein's, CDR and Barthel's scales and Global Clinical Impression (GCI). In order to evaluate therapeutic efficacy between the group receiving the combined dosage and the groups receiving the idebenone or nimodipine alone, a statistically significant improvement in one of the following criteria should exist: […]

[2] = oral, multiple doses of 45 or 100 mg, healthy volunteers; cited from earlier work
[3] = in vivo; cited from earlier work

Row | Compound | Global Clinic Impression [1] | BARTHEL's test, final mark [1] | CDR test, final mark [1] | FOLSTEIN's test, final mark [1] | BARTHEL's test, initial mark [1] | FOLSTEIN's test, initial mark [1] | CDR test, initial mark [1] | accumulation after repeated doses [2] | delivery to tissues [3]
1 | COC1=C(OC)C(=O)C(CCCCCCCCCCO)=C(C)C1=O [Group A, 6-(10-hydroxydecil)-2,3-dimethoxy-5-methyl-1,4-benzoquinone] | 5.0 | 87.6 | 0.64 | 24.8 | 87.2 | 22.8 | 0.68 | Accumulation does not occur | widely delivered to different tissues, including the brain
2 | COCCOC(=O)C1=C(C)NC(C)=C(C(=O)OC(C)C)C1c1cccc([N+](=O)[O-])c1 (stereo not shown) [Group B, 1,4-dyhidro-5-(isopropoxycarbonyl)-2,6-dimethyl-4-(3-nitrophenyl)-3-pyridine-carboxylate of 2-methoxyethyl] | 4.9 | 81.1 | 0.63 | 23.9 | 80.7 | 22.5 | 0.67 |  | 
